In patent publication US20240254140A1, “COMPOUNDS AND THEIR USE IN THE TREATMENT OF BACTERIAL INFECTION” (Hoffmann-La Roche Inc., priority 2021, published 2024):
Converted amounts (≈) assume the structure as drawn.

test system: Escherichia coli ATCC 25922; assay: Minimal Inhibitory Concentration (MIC) determination, broth microdilution; assay type: cell-based; details: ATCC25922; strain Escherichia coli ATCC 25922; broth microdilution per CLSI M07-A10; 18-24 hours at 35±2° C.; lowest concentration for complete growth inhibition
Procedure: Minimal Inhibitory Concentration (MIC) Determination:
The MIC of antibacterial compounds against multiple species and strains was determined using the broth microdilution method according to M07-A10 Clinical and Laboratory Standards Institute (CLSI) guidelines, using the appropriate broth medium. In short, the compound plates were prepared by dispensing 100 μL of each stock solution in the first well of a 96 well microtiter plate (MTP) at a concentration 100-fold higher than the final concentration desired in broth. Eleven serial 2-fold dilutions of the highest concentration were made in DMSO for new compounds and in water (or appropriate solution) for reference compounds [2]. 1 μL of each well was transferred in a new MTP, which served as the test plate by subsequent inoculation. This bacterial suspension was prepared from strains that were first sub-cultured on agar plates and incubated for 18-24 hours as appropriate. Following incubation, the inoculum was prepared from isolated colonies and adjusted to 0.5 McFarland turbidity standard (1 to 2×10^8 Colony Forming Units (CFU)/mL) in 0.9% saline. The bacterial suspension was then diluted 1:200 in appropriate sterile medium and within 15 minutes 100 μL/well were dispensed. Negative controls (lack of bacterial cells) and growth control wells (lack of compound) were included in all plates. MTPs were incubated for 18-24 hours at 35±2° C. in ambient air. The MIC value of each compound, expressed as μg/mL, was determined as the lowest concentration required for complete growth inhibition (no visible growth). • [1] CLSI (2015) Methods for dilution antimicrobial susceptibility tests for bacteria that grow aerobically; Approved Standard, Tenth Edition. CLSI Document M7-A10 (ISBN 1-56238-987-4). Wayne, PA: Clinical and Laboratory Standards Institute, 19087, USA. • [2] CLSI (2017) Performance Standards for Antimicrobial Susceptibility Testing; Twenty-Fifth Informational Supplement. CLSI Document M100-S27, CLSI, Wayne, Pennsylvania 19087, USA.
Table 1 provides the Minimal Inhibitory Concentrations (MIC) in micrograms per millilitre of the compounds of present invention obtained against the strain Escherichia coli ATCC 25922.

| SMILES | MIC [µg/mL] |
| --- | --- |
| CN(C)C1(C(=O)Nc2cc(F)c3c(c2)CC(CNCCC2CN(c4cnc5c(n4)NC(=O)CO5)C(=O)O2)C3)CC1 (centres unmarked) [Example 2] | 1 (≈ 1.81 µM) |
| C[C@H](C(=O)Nc1cc(F)c2c(c1)C(O)C(CN1CCC3(CC1)CN(c1cnc4c(n1)NC(=O)CO4)C(=O)O3)C2)N(C)C (stereo partly drawn) [Example 65, (2R)-2-(Dimethylamino)-N-[7-fluoro-3-hydroxy-2-[[2-oxo-3-(3-oxo-4H-pyrazino[2,3-b][1,4]oxazin-6-yl)-1-oxa-3,8-diazaspiro[4.5]decan-8-yl]methyl]indan-5-yl]propanamide] | 0.5 (≈ 0.857 µM) |
| Cc1cc(NC(=O)CN2CCC2)nc2c1CC(CNCCC1CN(c3cnc4c(n3)NC(=O)CO4)C(=O)O1)C2 (centres unmarked) [Example 26, 2-(azetidin-1-yl)-N-[4-methyl-6-[[2-[2-oxo-3-(3-oxo-4H-pyrazino[2,3-b][1,4]oxazin-6-yl)oxazolidin-5-yl]ethylamino]methyl]-6,7-dihydro-5H-cyclopenta[b]pyridin-2-yl]acetamide] | 0.5 (≈ 0.932 µM) |
| CC(C)(O)C(=O)Nc1cc(F)c2c(c1)CC(CNCCC1CN(c3cnc4c(n3)NC(=O)CO4)C(=O)O1)C2 (centres unmarked) [Example 18, N-[7-fluoro-2-[[2-[2-oxo-3-(3-oxo-4H-pyrazino[2,3-b][1,4]oxazin-6-yl)oxazolidin-5-yl]ethylamino]methyl]indan-5-yl]-2-hydroxy-2-methyl-propanamide] | 0.25 (≈ 0.473 µM) |
| CN1CCC[C@@H]1C(=O)Nc1cc(C#N)c2c(c1)CC(CNCCC1CN(c3cnc4c(n3)NC(=O)CO4)C(=O)O1)C2 (stereo partly drawn) [Example 62, (2R)—N-[7-Cyano-2-[[2-[2-oxo-3-(3-oxo-4H-pyrazino[2,3-b][1,4]oxazin-6-yl)oxazolidin-5-yl]ethylamino]methyl]indan-5-yl]-1-methyl-pyrrolidine-2-carboxamide] | ≤ 0.06 |
| CN(C)CC(=O)Nc1cc(F)c2c(c1)CC(CNCCC1CN(c3cnc4c(n3)NC(=O)CO4)C(=O)O1)C2 (centres unmarked) [Example 1, 2-(Dimethylamino)-N-[7-fluoro-2-[[2-[2-oxo-3-(3-oxo-4H-pyrazino[2,3-b][1,4]oxazin-6-yl)oxazolidin-5-yl]ethylamino]methyl]indan-5-yl]acetamide] | 0.125 (≈ 0.237 µM) |
| C[C@H](C(=O)Nc1cc(F)c2c(c1)CC(F)(CNCCC1CN(c3cnc4c(n3)NC(=O)CO4)C(=O)O1)C2)N(C)C (stereo partly drawn) [Example 33, (2R)-N-[2,7-difluoro-2-[[2-[2-oxo-3-(3-oxo-4H-pyrazino[2,3-b][1,4]oxazin-6-yl)oxazolidin-5-yl]ethylamino]methyl]indan-5-yl]-2-(dimethylamino)propanamide] | 0.5 (≈ 0.894 µM) |
| O=C1COc2ncc(N3CC(CCNCC4Cc5cc(NC(=O)[C@@H]6C[C@H](O)CN6)cc(F)c5C4)OC3=O)nc2N1 (stereo partly drawn) [Example 46, (2S,4S)-N-[7-fluoro-2-[[2-[2-oxo-3-(3-oxo-4H-pyrazino[2,3-b][1,4]oxazin-6-yl)oxazolidin-5-yl]ethylamino]methyl]indan-5-yl]-4-hydroxy-pyrrolidine-2-carboxamide] | 0.5 (≈ 0.9 µM) |
| CN(CC(=O)Nc1cc(F)c2c(c1)CC(CNCCC1CN(c3cnc4c(n3)NC(=O)CO4)C(=O)O1)C2)C1CC1 (centres unmarked) [Example 13] | 1 (≈ 1.81 µM) |

Results, then the compound that gave them:

| MIC [µg/mL] | SMILES |
| --- | --- |
| 0.25 (≈ 0.45 µM) | O=C1COc2ncc(N3CC(CCNCC4Cc5cc(NC(=O)[C@H]6C[C@H](O)CN6)cc(F)c5C4)OC3=O)nc2N1 (stereo partly drawn) [Example 47, (2R,4S)-N-[7-fluoro-2-[[2-[2-oxo-3-(3-oxo-4H-pyrazino[2,3-b][1,4]oxazin-6-yl)oxazolidin-5-yl]ethylamino]methyl]indan-5-yl]-4-hydroxy-pyrrolidine-2-carboxamide] |
| 0.25 (≈ 0.417 µM) | O=C1COc2ncc(N3CC4(CCN(CC5Cc6c(F)cc(NC(=O)[C@@H]7C[C@@H](O)CN7)c(F)c6C5)CC4)OC3=O)nc2N1 (stereo partly drawn) [Example 52, (2S,4R)—N-[4,7-Difluoro-2-[[2-oxo-3-(3-oxo-4H-pyrazino[2,3-b][1,4]oxazin-6-yl)-1-oxa-3,8-diazaspiro[4.5]decan-8-yl]methyl]indan-5-yl]-4-hydroxy-pyrrolidine-2-carboxamide] |
| 0.25 (≈ 0.44 µM) | C[C@H](C(=O)Nc1cc(F)c2c(c1)CC(CN1CCC3(CC1)CN(c1cnc4c(n1)NC(=O)CO4)C(=O)O3)C2)N(C)C (stereo partly drawn) [Example 7, (2R)-2-(dimethylamino)-N-[7-fluoro-2-[[2-oxo-3-(3-oxo-4H-pyrazino[2,3-b][1,4]oxazin-6-yl)-1-oxa-3,8-diazaspiro[4.5]decan-8-yl]methyl]indan-5-yl]propanamide] |
| 0.125 (≈ 0.228 µM) | C[C@H](C(=O)Nc1cc(C#N)c2c(c1)CC(CNCC[C@@H]1CN(c3cnc4c(n3)NC(=O)CO4)C(=O)O1)C2)N(C)C (stereo partly drawn) [Example 22, (2R)-N-[7-cyano-2-[[2-[(5R)-2-oxo-3-(3-oxo-4H-pyrazino[2,3-b][1,4]oxazin-6-yl)oxazolidin-5-yl]ethylamino]methyl]indan-5-yl]-2-(dimethylamino)propanamide] |
| 0.5 (≈ 0.839 µM) | C[C@@]1(C(=O)Nc2cc(F)c3c(c2)CC(CN2CCC4(CC2)CN(c2cnc5c(n2)NC(=O)CO5)C(=O)O4)C3)C[C@@H](O)CN1 (single isomer, unassigned) [Example 72] |
| 0.5 (≈ 0.889 µM) | N#Cc1cc(NC(=O)[C@@H]2C[C@@H](O)CN2)cc2c1CC(CNCCC1CN(c3cnc4c(n3)NC(=O)CO4)C(=O)O1)C2 (stereo partly drawn) [Example 61, (2S,4R)—N-[7-Cyano-2-[[2-[2-oxo-3-(3-oxo-4H-pyrazino[2,3-b][1,4]oxazin-6-yl)oxazolidin-5-yl]ethylamino]methyl]indan-5-yl]-4-hydroxy-pyrrolidine-2-carboxamide] |
| 0.25 (≈ 0.463 µM) | O=C1COc2ncc(N3CC(CCNCC4Cc5cc(NC(=O)[C@@H]6CCCN6)cc(F)c5C4)OC3=O)nc2N1 (stereo partly drawn) [Example 36, (2S)—N-[7-Fluoro-2-[[2-[2-oxo-3-(3-oxo-4H-pyrazino[2,3-b][1,4]oxazin-6-yl)oxazolidin-5-yl]ethylamino]methyl]indan-5-yl]pyrrolidine-2-carboxamide] |
| 1 (≈ 1.82 µM) | Cc1cc(NC(=O)[C@@H]2CCCN2C)nc2c1CC(CNCCC1CN(c3cnc4c(n3)NC(=O)CO4)C(=O)O1)C2 (stereo partly drawn) [Example 27, (2S)-1-methyl-N-[4-methyl-6-[[2-[2-oxo-3-(3-oxo-4H-pyrazino[2,3-b][1,4]oxazin-6-yl)oxazolidin-5-yl]ethylamino]methyl]-6,7-dihydro-5H-cyclopenta[b]pyridin-2-yl]pyrrolidine-2-carboxamide] |
| 1 (≈ 1.76 µM) | CO[C@H]1CN[C@H](C(=O)Nc2cc(F)c3c(c2)CC(CNCCC2CN(c4cnc5c(n4)NC(=O)CO5)C(=O)O2)C3)C1 (stereo partly drawn) [Example 44, (2S,4R)-N-[7-fluoro-2-[[2-[2-oxo-3-(3-oxo-4H-pyrazino[2,3-b][1,4]oxazin-6-yl)oxazolidin-5-yl]ethylamino]methyl]indan-5-yl]-4-methoxy-pyrrolidine-2-carboxamide] |

same assay, conditions: strain Escherichia coli ATCC 25922; broth microdilution per CLSI M07-A10; 18-24 hours at 35±2° C.; lowest concentration for complete growth inhibition

| Escherichia coli growth inhibition MIC [µg/mL] | SMILES |
| --- | --- |
| 0.125 | C[C@H](C(=O)Nc1cc(F)c2c(c1)CC(CNCC[C@H]1CN(c3cnc4c(n3)NC(=O)CO4)C(=O)O1)C2)N(C)C (single isomer, unassigned) [Example 69] |
| 0.125 | C[C@H](C(=O)Nc1cc(F)c2c(c1)CC(CNCC[C@@H]1CN(c3cnc4c(n3)NC(=O)CO4)C(=O)O1)C2)N(C)C (stereo partly drawn) [Example 71, (2R)-2-(Dimethylamino)-N-[7-fluoro-2-[[2-[(5R)-2-oxo-3-(3-oxo-4H-pyrazino[2,3-b][1,4]oxazin-6-yl)oxazolidin-5-yl]ethylamino]methyl]indan-5-yl]propanamide] |
